Molecules are shown by their SMILES.

One data set is described as follows: Thermal stability test. In kind it is physicochemical. Particulars: 60° C. for 2 weeks without humidity control, brown glass vessel. As for the experimental part: (§1) In the following Assay Examples 2 to 4, the stability of the ethanolamine salt (1), tromethamine salt (2), choline salt (3) and potassium salt (4) of 3-{[((2E)-2-{1-[5-(4-t-butylphenyl)-4-hydroxy-3-thienyl]ethylidene}hydrazino)carbonothioyl]amino}benzoic acid to temperature, humidity and light was evaluated, by related substance increase (%), weight change (%) or TG loss change (%) through appropriate selection.
(§2) Related substance increase (%)
(§3) Each sample was analyzed by high performance liquid chromatography before and after treatment, and the sum of area percentages for analogues in each sample were calculated. • Column: L-column ODS (Chemicals Evaluation and Research Institute, Japan inner diameter 4.6 mm, length 250 mm) • Detector: UV absorptiometer (wavelength; […]) • Column temperature: 40° C. • Flow rate: 1.0 mL/min • Injection volume: 10 μL • Mobile phase: (a) 0.01 M ammonium formate buffer (pH 3.0) • (b) acetonitrile Measurements were carried out with a gradient between the above (a) and (b) solutions.
The thermal stability of the ethanolamine salt (1), tromethamine salt (2), choline salt (3) and potassium salt (4) of 3-{[((2E)-2-{1-[5-(4-t-butylphenyl)-4-hydroxy-3-thienyl]ethylidene}hydrazino)carbonothioyl]amino}benzoic acid was evaluated as follows.
Each sample was put in a brown glass vessel, and the vessel was left at 60° C. for 2 weeks without humidity control. After 2 weeks, the sample was withdrawn, and the related substance increase (%) was evaluated.

A short description of another data set: Hygrostability test. Particulars: 25° C./90% RH for 2 weeks, vessel left open. Format: physicochemical. The method, then:
as §1, §2, §3
(§4) Each sample was weighed before and after treatment, and weight gain was calculated in percentages from the difference in weight. The magnitude of weight change during treatment is an indication of stability of a compound. TG loss change (%);
(§5) About 5 mg of each sample was weighed out before and after treatment and put in an aluminum pan, and TG measurements were performed with the pan left open. The rate of TG loss of each sample was calculated in percentages (%). The measuring conditions are shown below.
(§6) Measuring Conditions; • Instrument:TG8120 (Rigaku Corporation) • Measuring range: room temperature to 105° C. • Heating rate: 5° C./min • Atmosphere: air 50 mL/min
(§7) An increase in TG loss from the initial value indicates possibility of moisture absorption and degradation of a compound. Therefore, the magnitude of change in TG loss is an indication of stability of a compound.
The hygrostability of the ethanolamine salt (1), tromethamine salt (2), choline salt (3) and potassium salt (4) of 3-{[((2E)-2-{1-[5-(4-t-butylphenyl)-4-hydroxy-3-thienyl]ethylidene}hydrazino)carbonothioyl]amino}benzoic acid was evaluated as follows.
About 1 g of each sample was put in a transparent glass vessel and maintained at 25° C./90% RH (relative humidity) for 2 weeks with the vessel left open. After 2 weeks, the sample was withdrawn, and the related substance increase (%), weight change (%) and TG loss change (%) were evaluated.

The next data set is described as follows: Photostability test. In kind it is physicochemical. The conditions noted are these: 25° C./60% RH, vessel left open, light of 200 W·hr·m^2 for 57 hours. The method, then: as §1, §2, §3, §4, §5, §6, §7
The photostability of the ethanolamine salt (1), tromethamine salt (2), choline salt (3) and potassium salt (4) of 3-{[((2E)-2-{1-[5-(4-t-butylphenyl)-4-hydroxy-3-thienyl]ethylidene}hydrazino)carbonothioyl]amino}benzoic acid was evaluated as follows.
About 1 g of each sample was put in a transparent glass vessel at 25° C./60% RH (relative humidity) with the vessel left open and irradiated with light of 200 W·hr·m^2 for 57 hours. […], the sample was withdrawn, and the related substance increase (%), weight change (%) and TG loss change (%) were evaluated.

Data set [1] can be described thus: Initial values of TG loss and related substances before treatment. Format: physicochemical. Particulars: initial value before treatment; for Related substances (%): HPLC, sum of area percentages for analogues; for TG loss (%): TG room temperature to 105° C. The method, then:
as §2, §3, §5, §6

Data set [2] in a line: Oral absorption test on dogs. Format: in vivo. Particulars: beagle dogs, oral capsule, 360 mg/dog; ratio to Compound A (free form). As for the experimental part: Oral Absorption Test on Dogs
The free form (Compound A), potassium salt, organic amine salts (ethanolamine salt and tromethamine salt) and salt of quaternary ammonium ion (choline salt) of 3-{[((2E)-2-{1-[5-(4-t-butylphenyl)-4-hydroxy-3-thienyl]ethylidene}hydrazino)carbonothioyl]amino}benzoic acid in capsule were orally administered to beagle dogs at a dose of 360 mg/dog. 0.5, 1, 2, 4, 6, 8 and 24 hours after the administration, blood was collected to obtain plasma samples. Their concentrations in dog plasma were measured by LC/MS/MS. Using the plasma concentrations obtained, maximum plasma concentration (Cmax), time to maximum plasma concentration (Tmax) and area under the plasma concentration-time curve were calculated.
In FIG. 1, * represents Compound A (Free Acid), ♦ represents the potassium salt (Potassium Salt), □ represents the choline salt (Choline Salt), ▴ represents ethanolamine (Ethanolamine Salt), and ◯ represents the tromethamine salt (Tromethamine Salt).

With `C/C(=N\NC(=S)Nc1cccc(C(=O)O)c1)c1csc(-c2ccc(C(C)(C)C)cc2)c1O.NCCO` [(1), Ethanolamine salt of 3-{[((2E)-2-{1-[5-(4-t-butylphenyl)-4-hydroxy-3-thienyl]ethylidene}hydrazino)carbonothioyl]amino}benzoic acid], the Related substance increase in “Thermal stability test” was determined as 0.16%. In the data set “Hygrostability test”, the Related substance increase is on record as 0.04%, the TG loss change was −0.26% and the Weight change was determined as 0.29%. Further, in “Photostability test”, the Related substance increase is recorded as −0.01%, the TG loss change was −0.25% and the Weight change is 0.23%. In data set [1], the “Related substances (%)” value is on record as 0.34% and the “TG loss (%)” value is 0.64%.
`C/C(=N\NC(=S)Nc1cccc(C(=O)O)c1)c1csc(-c2ccc(C(C)(C)C)cc2)c1O.NC(CO)(CO)CO` [(2), Tromethamine salt of 3-{[((2E)-2-{1-[5-(4-t-butylphenyl)-4-hydroxy-3-thienyl]ethylidene}hydrazino)carbonothioyl]amino}benzoic acid]: in the data set “Thermal stability test”, the Related substance increase is recorded as −0.01%. In the data set “Hygrostability test”, the Related substance increase was −0.03%, the TG loss change is reported as −0.13% and the Weight change amounted to 0.00%. Besides, in the data set “Photostability test”, the Related substance increase came to 0.01%, the TG loss change is on record as −0.13% and the Weight change was 0.01%. In addition, in data set [1], the “Related substances (%)” value is given as 0.07% and the “TG loss (%)” value is 0.11%.
Turning to `C/C(=N\NC(=S)Nc1cccc(C(=O)[O-])c1)c1csc(-c2ccc(C(C)(C)C)cc2)c1O.C[N+](C)(C)CCO` [(3), Choline salt of 3-{[((2E)-2-{1-[5-(4-t-butylphenyl)-4-hydroxy-3-thienyl]ethylidene}hydrazino)carbonothioyl]amino}benzoic acid], the Related substance increase in “Thermal stability test” is −0.01%. Besides, in “Hygrostability test”, the Related substance increase is recorded as −0.01%, the TG loss change was 0.66% and the Weight change turned out to be 0.10%. In “Photostability test”, the Related substance increase stood at 0.00%, the TG loss change came to 0.58% and the Weight change worked out at 0.17%. Besides, in data set [1], the “Related substances (%)” value came to 0.34% and the “TG loss (%)” value came out at 1.19%.
For the molecule `C/C(=N\NC(=S)Nc1cccc(C(=O)[O-])c1)c1csc(-c2ccc(C(C)(C)C)cc2)c1O.[K+]` [(4), Potassium 3-{[((2E)-2-{1-[5-(4-t-butylphenyl)-4-hydroxy-3-thienyl]ethylidene}hydrazine)carbonothioyl]amino}benzoate, reference compound], in data set [2], the “area under the plasma concentration-time curve (AUC), times better than Compound A” value came to 6.3 times and the “maximum plasma concentration (Cmax), times better than Compound A” value is listed as 7.2 times. Further, the Related substance increase in the data set “Thermal stability test” came out at 2.46%. Also, in “Hygrostability test”, the Related substance increase is 0.39%, the TG loss change is given as 7.86% and the Weight change was 23.22%. Moreover, in “Photostability test”, the Related substance increase turned out to be 0.27%, the TG loss change was found to be 3.16% and the Weight change was found to be 9.36%. In data set [1], the “Related substances (%)” value is recorded as 1.86% and the “TG loss (%)” value was found to be 3.18%.

These data come from US8946286B2, “Organic amine salts of aminobenzoic acid derivatives and method for producing same” (Nissan Chemical Industries, Ltd., priority 2010, dated 2015).
